This passage reports Activity results from ChEMBL document CHEMBL4270550, “Synthesis of pyrazolo[3,4-d]pyrimidin-4(5H)-ones tethered to 1,2,3-triazoles and their evaluation as potential anticancer agents” (2018).

SMILES strings stand for the structures.

Assay [1] concerns U-87 MG. Nature of the assay: Antiproliferative activity against human U87 cells at 10 uM after 48 hrs by MTT assay relative to control. It counts as functional, U-87MG ATCC. (Tetrazolium assays rely on reduction of a dye to a coloured formazan, in cell work by metabolically active cells.)
Assay [2] relates to C6. Nature of the assay: Antiproliferative activity against rat C6 cells at 10 uM after 48 hrs by MTT assay relative to control. It counts as functional.
For assay [3], the system named is U-87 MG. The experiment in a line: Cell cycle arrest in human U87 cells assessed as accumulation of cells at G2/M phase at 25 uM after 48 hrs by propidium iodide staining-based flow cytometric analysis (reference value: 19.4%). It counts as functional, U-87MG ATCC. On the technique in general: A flow cytometer gives signals particle by particle.
For assay [4], the system named is U-87 MG. The experiment in a line: Antiproliferative activity against human U87 cells after 48 hrs by MTT assay. It counts as functional, cell-based. To be noted: U-87MG ATCC.
The subject of assay [5] is U-87 MG. The experiment in a line: Induction of apoptosis in human U87 cells after 48 hrs by propidium iodide staining-based flow cytometric analysis. It counts as functional, cell-based. The note with it: U-87MG ATCC.
Assay [6] has as its system U-87 MG. The experiment in a line: Cell cycle arrest in human U87 cells assessed as accumulation of cells at S phase at 50 uM after 48 hrs by propidium iodide staining-based flow cytometric analysis (reference value: 8.95%). It counts as functional, U-87MG ATCC.
The test system of assay [7] is U-87 MG. Nature of the assay: Cell cycle arrest in human U87 cells assessed as accumulation of cells at S phase at 25 uM after 48 hrs by propidium iodide staining-based flow cytometric analysis (reference value: 8.95%). It counts as functional, U-87MG ATCC.
Assay [8] deals with U-87 MG. Nature of the assay: Cell cycle arrest in human U87 cells assessed as accumulation of cells at G2/M phase at 50 uM after 48 hrs by propidium iodide staining-based flow cytometric analysis (reference value: 19.4%). It counts as functional, U-87MG ATCC.
Assay [9] has as its system U-87 MG. Nature of the assay: Cell cycle arrest in human U87 cells assessed as accumulation of cells at G0/G1 phase at 10 uM after 48 hrs by propidium iodide staining-based flow cytometric analysis (reference value: 71.7%). It counts as functional, U-87MG ATCC.
For assay [10], the system named is U-87 MG. Nature of the assay: Cell cycle arrest in human U87 cells assessed as accumulation of cells at G2/M phase at 10 uM after 48 hrs by propidium iodide staining-based flow cytometric analysis (reference value: 19.4%). It counts as functional, U-87MG ATCC.
Assay [11] concerns U-87 MG. The experiment in a line: Cell cycle arrest in human U87 cells assessed as accumulation of cells at G0/G1 phase at 50 uM after 48 hrs by propidium iodide staining-based flow cytometric analysis (reference value: 71.7%). It counts as functional, U-87MG ATCC.
Assay [12] has as its system C6. Nature of the assay: Antiproliferative activity against rat C6 cells after 48 hrs by MTT assay. It counts as functional, cell-based.
Assay [13] deals with U-87 MG. Nature of the assay: Cell cycle arrest in human U87 cells assessed as accumulation of cells at S phase at 10 uM after 48 hrs by propidium iodide staining-based flow cytometric analysis (reference value: 8.95%). It counts as functional, U-87MG ATCC.
Assay [14] deals with U-87 MG. Nature of the assay: Cell cycle arrest in human U87 cells assessed as accumulation of cells at G0/G1 phase at 25 uM after 48 hrs by propidium iodide staining-based flow cytometric analysis (reference value: 71.7%). It counts as functional, U-87MG ATCC.
The subject of assay [15] is U-87 MG. The experiment in a line: Induction of apoptosis in human U87 cells assessed as increase in p53 levels by Western blot analysis. It counts as functional, cell-based. To be noted: U-87MG ATCC.
For assay [16], the system named is U-87 MG. Nature of the assay: Induction of apoptosis in human U87 cells assessed as increase in caspase3 expression by Western blot analysis. The note with it: U-87MG ATCC. It counts as functional, cell-based. For orientation: Immunoblotting shows a protein as a band on a membrane.
Assay [17] deals with U-87 MG. Nature of the assay: Induction of apoptosis in human U87 cells assessed as increase in cleaved PARP levels by Western blot analysis. It counts as functional, cell-based. To be noted: U-87MG ATCC.

Take `O=c1c2cnn(-c3ccccc3)c2ncn1Cc1cn(-c2ccccc2F)nn1`: the Activity in the assay with U-87 MG [1] is given as 46.35%.

`COc1ccccc1-n1cc(Cn2cnc3c(cnn3-c3ccccc3)c2=O)nn1`: the Activity stood at 15.7% in the assay with U-87 MG [1] and 4.91% with C6 [2].

`O=c1c2cnn(-c3ccc(Cl)cc3)c2ncn1Cc1cn(-c2ccccc2F)nn1`: the Activity in the assay on U-87 MG [1] is 21.31%.

For the compound `O=c1c2cnn(-c3ccc(Cl)cc3)c2ncn1Cc1cn(-c2cccc(Cl)c2)nn1`, the Activity with U-87 MG [1] came out at 47.29%; in the assay on C6 [2], 9.55%.

Compound `Cc1cccc(-n2cc(Cn3cnc4c(cnn4-c4ccccc4)c3=O)nn2)c1C` yielded an Activity in the assay on U-87 MG [1] of 40.6%.

Turning to `Cc1ccccc1-n1cc(Cn2cnc3c(cnn3-c3ccccc3)c2=O)nn1`, the Activity in the assay with U-87 MG [1] was determined as 21.32%; in the assay with C6 [2] it was 13.64%.

`COc1ccccc1-n1cc(Cn2cnc3c(cnn3-c3ccc(Cl)cc3)c2=O)nn1`: the figures for the Activity in the assay on U-87 MG [1] and in the assay with C6 [2] were 32.98% and 16.37%, respectively.

Take `O=c1c2cnn(-c3ccccc3)c2ncn1Cc1cn(-c2cccc(Cl)c2)nn1`: the Activity in the assay on U-87 MG [3] was 2.03%; in the assay with U-87 MG [1], 47.69%; with U-87 MG [4], “Dose-dependent effect”; with C6 [2], 17.87%; in the assay on U-87 MG [5], “Dose-dependent effect”; in the assay on U-87 MG [6], 37.4%. In addition, the Activity in the assay on U-87 MG [7] is 17.13%; in the assay with U-87 MG [8], 0.08%; in the assay on U-87 MG [9], 73.3%; in the assay with U-87 MG [10] it was 12.52%; in the assay on U-87 MG [11], 62.6%; in the assay on C6 [12] it was “Dose-dependent effect”. Moreover, the Activity in the assay with U-87 MG [13] was 14.18%; in the assay on U-87 MG [14], 80.8%; with U-87 MG [15], “Dose-dependent effect”; in the assay on U-87 MG [16] it was “Dose-dependent effect”; with U-87 MG [17] it was “Dose-dependent effect”.

As for `O=c1c2cnn(-c3ccccc3)c2ncn1Cc1cn(-c2ccccc2)nn1`, the Activity in the assay with U-87 MG [1] is recorded as 52.34%; in the assay with C6 [2], 34.1%.

In the case of `O=c1c2cnn(-c3ccc(Cl)cc3)c2ncn1Cc1cn(-c2ccccc2)nn1`, the Activity in the assay on U-87 MG [1] is reported as 40.98%.

Consider `Cc1cccc(-n2cc(Cn3cnc4c(cnn4-c4ccc(Cl)cc4)c3=O)nn2)c1C`, for which the Activity in the assay with U-87 MG [1] is reported as 54.42%; in the assay on C6 [2], 35.91%.

`Cc1ccc(-n2cc(Cn3cnc4c(cnn4-c4ccccc4)c3=O)nn2)cc1`: the results for the Activity with U-87 MG [1] and with C6 [2] were 41.62% and 16.87%, respectively.
